Values belong to the molecule of their own block, whether it stands above or below them.
What was measured:
JAK2/TYK2 [1] = target: T1, JAK2/TYK2 (Homo sapiens, UniProt O60674+P29597); test: Inhibition of JAK2/TYK2 signal transduction pathway in human NK92 cells assessed as IL-12 induced STAT4 phosphorylation; assay type: cell-based
[2] = target: T2, Non-receptor tyrosine-protein kinase TYK2 (Homo sapiens, UniProt P29597); test: Inhibition of TYK2 signal transduction pathway in human TF-1 cells assessed as reduction in GM-CSF induced p-STAT5 level; assay type: cell-based
T2 sequence (P29597 whole entry): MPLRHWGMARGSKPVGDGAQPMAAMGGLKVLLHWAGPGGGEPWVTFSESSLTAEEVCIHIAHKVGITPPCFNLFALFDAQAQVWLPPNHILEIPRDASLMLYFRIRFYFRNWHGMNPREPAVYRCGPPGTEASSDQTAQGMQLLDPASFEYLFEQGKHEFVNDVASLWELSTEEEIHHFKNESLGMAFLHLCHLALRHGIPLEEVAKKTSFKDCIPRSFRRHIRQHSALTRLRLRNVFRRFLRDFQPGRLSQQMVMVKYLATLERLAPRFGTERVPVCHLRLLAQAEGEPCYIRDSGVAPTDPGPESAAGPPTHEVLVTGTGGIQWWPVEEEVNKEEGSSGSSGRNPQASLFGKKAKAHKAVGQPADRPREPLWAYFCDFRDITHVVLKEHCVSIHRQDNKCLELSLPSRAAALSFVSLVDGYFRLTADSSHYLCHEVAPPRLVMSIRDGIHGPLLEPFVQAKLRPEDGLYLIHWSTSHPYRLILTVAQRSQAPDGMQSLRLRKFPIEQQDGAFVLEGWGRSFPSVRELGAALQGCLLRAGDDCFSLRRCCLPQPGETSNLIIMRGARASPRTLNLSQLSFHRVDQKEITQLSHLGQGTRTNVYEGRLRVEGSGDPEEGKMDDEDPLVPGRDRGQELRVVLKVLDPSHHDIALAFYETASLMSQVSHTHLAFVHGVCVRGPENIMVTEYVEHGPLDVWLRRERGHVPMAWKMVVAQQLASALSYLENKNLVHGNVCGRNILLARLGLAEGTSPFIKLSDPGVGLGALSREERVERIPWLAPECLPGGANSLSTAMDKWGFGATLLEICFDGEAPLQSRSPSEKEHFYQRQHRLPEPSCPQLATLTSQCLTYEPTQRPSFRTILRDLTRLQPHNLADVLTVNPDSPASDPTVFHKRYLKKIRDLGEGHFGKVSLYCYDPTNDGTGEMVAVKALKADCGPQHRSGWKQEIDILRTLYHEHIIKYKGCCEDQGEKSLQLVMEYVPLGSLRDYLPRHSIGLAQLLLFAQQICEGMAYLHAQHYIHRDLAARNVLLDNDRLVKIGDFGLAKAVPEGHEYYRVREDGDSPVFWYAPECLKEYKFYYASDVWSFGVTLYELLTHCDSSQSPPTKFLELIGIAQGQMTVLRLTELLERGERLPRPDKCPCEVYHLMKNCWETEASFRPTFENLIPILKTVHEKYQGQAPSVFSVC

[3] = Half life in mouse at 10 mg/kg, po measured upto 24 hrs by LC-MS/MS analysis; assay type: ADME, organism-based; conditions: in vivo
[4] = Cmax in mouse at 10 mg/kg, po measured upto 24 hrs by LC-MS/MS analysis; assay type: ADME, organism-based; set-up: time < 24 hrs, dose 10 mg/kg, route po; conditions: in vivo
[5] = AUClast in mouse at 10 mg/kg, po measured upto 24 hrs by LC-MS/MS analysis; assay type: ADME, organism-based; set-up: dose 10 mg/kg, time < 24 hrs, route po; conditions: in vivo
[6] = Inhibition of IFNalpha induced STAT phosphorylation in human whole blood by fluorescence based analysis; assay type: tissue-based
[7] = Inhibition of IL-23 induced STAT phosphorylation in HEK293 cells by Western blotting analysis; assay type: cell-based; conditions: Homo sapiens
[8] = Inhibition of IFNalpha induced STAT phosphorylation in HEK293 cells by Western blotting analysis; assay type: cell-based; conditions: Homo sapiens
[9] = target: T2, Non-receptor tyrosine-protein kinase TYK2; test: Inhibition of TYK2 JH2 (unknown origin) by scintillation proximity assay
[10] = target: T2, Non-receptor tyrosine-protein kinase TYK2; test: Inhibition of TYK2 JH2 in human TF-1 cells assessed as reduction of IFNalpha induced STAT1 phosphorylation; assay type: cell-based
[11] = target: T3, Tyrosine-protein kinase JAK1 (Homo sapiens, UniProt P23458); test: Binding affinity to JAK1 JH2 (unknown origin)
T3 sequence (P23458 whole entry): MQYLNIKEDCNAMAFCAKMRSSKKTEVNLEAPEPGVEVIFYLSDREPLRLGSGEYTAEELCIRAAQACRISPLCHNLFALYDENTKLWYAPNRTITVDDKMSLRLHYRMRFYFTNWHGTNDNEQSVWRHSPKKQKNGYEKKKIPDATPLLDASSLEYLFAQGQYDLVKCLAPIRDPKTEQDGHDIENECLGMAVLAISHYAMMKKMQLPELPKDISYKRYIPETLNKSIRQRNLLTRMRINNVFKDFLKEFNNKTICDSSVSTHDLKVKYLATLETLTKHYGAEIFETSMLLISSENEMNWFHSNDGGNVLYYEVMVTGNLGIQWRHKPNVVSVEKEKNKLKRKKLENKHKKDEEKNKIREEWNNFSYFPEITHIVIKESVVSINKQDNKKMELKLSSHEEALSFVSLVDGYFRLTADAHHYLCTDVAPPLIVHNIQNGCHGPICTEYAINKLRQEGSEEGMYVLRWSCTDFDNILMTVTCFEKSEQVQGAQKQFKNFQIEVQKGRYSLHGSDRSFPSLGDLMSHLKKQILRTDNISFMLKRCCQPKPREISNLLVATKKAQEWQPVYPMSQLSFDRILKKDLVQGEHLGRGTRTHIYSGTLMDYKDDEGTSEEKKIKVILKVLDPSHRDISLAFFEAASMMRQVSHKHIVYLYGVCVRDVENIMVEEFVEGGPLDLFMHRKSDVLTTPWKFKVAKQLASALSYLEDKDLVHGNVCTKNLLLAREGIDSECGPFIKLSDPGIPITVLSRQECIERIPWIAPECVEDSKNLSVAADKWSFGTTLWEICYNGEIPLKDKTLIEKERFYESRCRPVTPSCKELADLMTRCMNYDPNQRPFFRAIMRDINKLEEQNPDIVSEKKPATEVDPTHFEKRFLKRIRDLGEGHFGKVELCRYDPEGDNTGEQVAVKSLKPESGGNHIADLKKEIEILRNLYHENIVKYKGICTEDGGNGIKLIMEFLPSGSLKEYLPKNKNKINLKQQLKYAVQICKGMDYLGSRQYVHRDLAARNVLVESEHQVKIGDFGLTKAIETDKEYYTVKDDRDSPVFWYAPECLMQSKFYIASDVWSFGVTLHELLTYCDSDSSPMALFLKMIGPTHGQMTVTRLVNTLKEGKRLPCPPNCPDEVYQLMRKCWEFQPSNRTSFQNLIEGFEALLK

[12] = target: T2, Non-receptor tyrosine-protein kinase TYK2; test: Binding affinity to TYK2 JH2 (unknown origin)
[13] = target: T4, Tyrosine-protein kinase JAK2 (Homo sapiens, UniProt O60674); test: Binding affinity to JAK2 JH1 (unknown origin)
T4 sequence (O60674 whole entry): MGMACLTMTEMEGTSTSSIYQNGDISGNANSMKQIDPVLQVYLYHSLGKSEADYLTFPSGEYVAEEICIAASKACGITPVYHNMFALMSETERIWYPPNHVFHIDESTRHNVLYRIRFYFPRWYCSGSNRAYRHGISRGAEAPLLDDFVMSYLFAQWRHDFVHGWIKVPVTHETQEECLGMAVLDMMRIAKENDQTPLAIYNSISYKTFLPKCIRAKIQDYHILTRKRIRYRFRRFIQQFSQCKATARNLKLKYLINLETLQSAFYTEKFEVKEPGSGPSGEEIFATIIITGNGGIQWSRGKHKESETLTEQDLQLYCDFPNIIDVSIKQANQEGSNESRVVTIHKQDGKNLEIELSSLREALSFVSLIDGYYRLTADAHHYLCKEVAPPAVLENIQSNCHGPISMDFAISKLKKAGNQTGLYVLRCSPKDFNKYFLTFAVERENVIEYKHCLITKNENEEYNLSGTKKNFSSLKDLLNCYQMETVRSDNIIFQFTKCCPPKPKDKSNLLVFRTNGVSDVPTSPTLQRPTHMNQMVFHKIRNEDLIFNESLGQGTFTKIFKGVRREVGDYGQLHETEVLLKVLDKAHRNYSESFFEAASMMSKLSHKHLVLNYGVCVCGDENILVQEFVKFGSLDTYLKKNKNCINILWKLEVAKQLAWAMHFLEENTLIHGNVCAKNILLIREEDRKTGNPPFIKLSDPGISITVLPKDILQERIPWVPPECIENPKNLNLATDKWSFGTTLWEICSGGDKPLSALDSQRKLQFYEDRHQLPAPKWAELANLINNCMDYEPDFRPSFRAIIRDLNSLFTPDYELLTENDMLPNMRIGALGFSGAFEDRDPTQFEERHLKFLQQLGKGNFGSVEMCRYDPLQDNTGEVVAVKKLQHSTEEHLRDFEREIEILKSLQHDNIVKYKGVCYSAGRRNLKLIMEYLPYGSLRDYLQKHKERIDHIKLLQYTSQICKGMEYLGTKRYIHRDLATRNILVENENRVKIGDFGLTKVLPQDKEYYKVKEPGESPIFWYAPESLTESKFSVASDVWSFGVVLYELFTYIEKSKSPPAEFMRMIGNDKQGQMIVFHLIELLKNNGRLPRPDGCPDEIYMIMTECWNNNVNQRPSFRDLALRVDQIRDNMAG

[14] = target: T2, Non-receptor tyrosine-protein kinase TYK2; test: Inhibition of TYK2 signal transduction pathway in human PBMC cells assessed as IFNalpha induced p-STAT5 level; assay type: cell-based
[15] = target: T2, Non-receptor tyrosine-protein kinase TYK2; test: Inhibition of TYK2 signal transduction pathway in human PBMC cells assessed as reduction in GM-CSF induced p-STAT5 level; assay type: cell-based
[16] = target: T2, Non-receptor tyrosine-protein kinase TYK2; test: Inhibition of TYK2 signal transduction pathway in human PBMC cells assessed as IL-2 induced p-STAT5 level; assay type: cell-based
[17] = target: T2, Non-receptor tyrosine-protein kinase TYK2; test: Binding affinity to human wild-type partial length TYK2 JH2 (G556 to D888 residues) expressed in mammalian expression system by KINOMEscan assay
[18] = target: T2, Non-receptor tyrosine-protein kinase TYK2; test: Inhibition of TYK2 JH2 in human KIT225 cells assessed as reduction of IFNalpha induced STAT1 phosphorylation by AlphaLISA assay; assay type: cell-based
[19] = target: T5, Tyrosine-protein kinase JAK3 (Homo sapiens, UniProt P52333); test: Inhibition of JAK3 (unknown origin) using ULight - JAK (Tyr1023) substrate incubated for 60 mins in presence of ATP by envision plate reader based analysis
T5 sequence (P52333 whole entry): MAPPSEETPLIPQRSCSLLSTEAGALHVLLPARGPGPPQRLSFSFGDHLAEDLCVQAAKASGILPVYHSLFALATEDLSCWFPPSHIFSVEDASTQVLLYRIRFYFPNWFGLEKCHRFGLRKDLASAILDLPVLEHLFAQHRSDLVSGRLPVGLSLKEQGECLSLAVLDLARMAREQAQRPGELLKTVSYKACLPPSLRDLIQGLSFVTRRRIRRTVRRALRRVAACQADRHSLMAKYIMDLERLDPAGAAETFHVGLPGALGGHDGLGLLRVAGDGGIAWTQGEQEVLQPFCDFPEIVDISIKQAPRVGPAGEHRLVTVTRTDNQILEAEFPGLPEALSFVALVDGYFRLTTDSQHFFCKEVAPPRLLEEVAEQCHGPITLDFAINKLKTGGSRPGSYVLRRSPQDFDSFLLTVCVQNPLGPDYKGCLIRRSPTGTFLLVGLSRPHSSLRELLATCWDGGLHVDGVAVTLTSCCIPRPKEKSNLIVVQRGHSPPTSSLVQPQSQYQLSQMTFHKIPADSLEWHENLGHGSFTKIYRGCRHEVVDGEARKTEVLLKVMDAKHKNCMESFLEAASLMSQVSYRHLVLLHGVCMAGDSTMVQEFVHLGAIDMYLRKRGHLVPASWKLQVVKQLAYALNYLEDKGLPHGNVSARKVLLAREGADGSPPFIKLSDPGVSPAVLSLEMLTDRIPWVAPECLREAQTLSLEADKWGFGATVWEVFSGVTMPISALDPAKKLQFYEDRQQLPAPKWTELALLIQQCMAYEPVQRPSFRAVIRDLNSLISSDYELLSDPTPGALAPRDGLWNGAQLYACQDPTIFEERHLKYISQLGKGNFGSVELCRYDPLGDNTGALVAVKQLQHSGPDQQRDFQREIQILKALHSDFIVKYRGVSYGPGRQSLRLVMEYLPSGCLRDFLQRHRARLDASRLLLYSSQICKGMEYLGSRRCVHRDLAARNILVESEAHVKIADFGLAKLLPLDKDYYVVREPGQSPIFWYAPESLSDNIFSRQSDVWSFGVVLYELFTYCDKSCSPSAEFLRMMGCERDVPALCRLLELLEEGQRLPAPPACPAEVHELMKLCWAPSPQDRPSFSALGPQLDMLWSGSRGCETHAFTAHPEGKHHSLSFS

[20] = target: T3, Tyrosine-protein kinase JAK1; test: Inhibition of human recombinant JAK1 preincubated for 15 mins followed by substrate addition measured after 60 mins by HTRF assay
[21] = target: T4, Tyrosine-protein kinase JAK2; test: Inhibition of human recombinant JAK2 preincubated for 15 mins followed by substrate addition measured after 60 mins by HTRF assay
[22] = target: T5, Tyrosine-protein kinase JAK3; test: Inhibition of human recombinant JAK3 preincubated for 15 mins followed by substrate addition measured after 60 mins by HTRF assay
[23] = target: T2, Non-receptor tyrosine-protein kinase TYK2; test: Inhibition of human recombinant TYK2 preincubated for 15 mins followed by substrate addition measured after 60 mins by HTRF assay
JAK2/TYK2 [24] = target: T1, JAK2/TYK2; test: Inhibition of JAK2/TYK2 signal transduction pathway in human NK92 cells assessed as […] induced IFNgamma expression incubated for 24 hrs by ELISA assay; assay type: cell-based
[25] = target: T4, Tyrosine-protein kinase JAK2; test: Inhibition of JAK2 JH1 (unknown origin) at 10 uM relative to control
[26] = target: T2, Non-receptor tyrosine-protein kinase TYK2; test: Inhibition of TYK2 JH1 (unknown origin) at 10 uM relative to control
JAK2/TYK2 [27] = target: T1, JAK2/TYK2; test: Inhibition of JAK2/TYK2 signal transduction pathway in human PBMC cells assessed as IL-12 induced p-STAT4 level incubated for 30 mins; assay type: cell-based
JAK2/TYK2 [28] = target: T1, JAK2/TYK2; test: Inhibition of JAK2/TYK2 signal transduction pathway in human PBMC cells assessed as reduction in GM-CSF induced p-STAT5 level incubated for 20 mins; assay type: cell-based

T1 sequence (O60674 whole entry): as the sequence (O60674 whole entry) above
T1 sequence (P29597 whole entry): as the sequence (P29597 whole entry) above

- IC50 [6]: 30 nM
SMILES: [2H]C([2H])([2H])NC(=O)c1nnc(NC(=O)C2CC2)cc1Nc1cccc(-c2noc(CN3CCN(S(C)(=O)=O)CC3)n2)c1OC

- IC50 [7]: < 30 nM
- IC50 [8]: < 30 nM
SMILES: [2H]C([2H])([2H])NC(=O)c1nnc(Nc2ccc(F)cn2)cc1Nc1cccc2c1N(C)Cc1n[nH]c(=O)n1-2

- IC50 [6]: 30 nM
SMILES: [2H]C([2H])([2H])NC(=O)c1nnc(NC(=O)C2CC2)cc1Nc1cccc(-c2nc(CN3CCN(S(C)(=O)=O)CC3)no2)c1OC

- IC50 [6]: 40 nM
SMILES: [2H]C([2H])([2H])NC(=O)c1nnc(NC(=O)C2CC2)cc1Nc1cccc(-c2ncc(C(=O)N3CCN(C4CCCC4)CC3)s2)c1OC

- Kd [17]: 0.005 nM
- IC50 [18]: 83 nM
SMILES: [2H]C([2H])([2H])NC(=O)c1nnc(Nc2ccc(N3CC(O)C3)cn2)cc1Nc1cccc(-c2ncn(C)n2)c1OC

- IC50 [6]: 9 nM
SMILES: [2H]C([2H])([2H])NC(=O)c1cnc(Nc2cc(C3CC3)ncn2)cc1Nc1ncccc1S(C)(=O)=O

- IC50 [7]: < 30 nM
- IC50 [8]: < 30 nM
SMILES: [2H]C([2H])([2H])NC(=O)c1nnc(NC(=O)C2CC2)cc1Nc1cccc2c1N(C)Cc1nc(C)nn1-2

- Kd [17]: 0.008 nM
SMILES: [2H]C([2H])([2H])NC(=O)c1nnc(NC(=O)C2CC2)cc1Nc1cccc(-c2noc(CN3CCN(S(C)(=N)=O)CC3)n2)c1OC (stereo unspecified)

Second part, the molecule before the results:

SMILES: COc1cc(Nc2cc(NC(C)=O)ncc2-c2ccc3c(n2)OCC(C)(C)O3)nc(S(C)(=O)=O)c1
- IC50 (JAK2/TYK2 [1]): 0.053 nM
- IC50 [2]: 1820 nM
- half-life [3]: 3.01 h
- Cmax [4]: 2820 ng/mL
- AUC(0-t) at 24 h [5]: 16200 ng·h/mL

SMILES: CNc1cc(Nc2cccc3c2OCCC3)nc2c(C(=O)N[C@@H]3CCN(C)C3=O)cnn12
- IC50 [9]: < 254 nM
- IC50 [10]: 7 nM

SMILES: [2H]C([2H])([2H])CC(=O)c1cnc(NC(=O)C2CC2)cc1Nc1nccc(-c2ncn(C([2H])([2H])[2H])n2)c1OC
- Kd [11]: ≤ 100 nM
- Kd [12]: ≤ 10 nM
- Kd [13]: ≤ 1000 nM
- IC50 [14]: < 100 nM
- IC50 [15]: > 10000 nM
- IC50 [16]: ≤ 1000 nM

SMILES: CNc1cc2nn3c(cnc13)C(=O)N[C@H](C)COCc1ccc(OC)c(c1)N2
- Kd [11]: 430 nM
- Kd [12]: 0.002 nM
- Kd [13]: 7300 nM
- IC50 [14]: 1.2 nM
- IC50 [16]: > 10000 nM

SMILES: Cn1cc(-c2cn3ncnc3c(-c3ccn([C@]4(CC#N)C[C@H](C#N)C4)c3)n2)cn1
- IC50 [19]: > 5000 nM

SMILES: O=C(Nc1cc2c(cn1)c(=O)[nH]n2-c1ccccc1)C1CC1
- IC50 [7]: < 10000 nM
- IC50 [8]: < 10000 nM

SMILES: CNC(=O)c1nnc(NC(=O)N2CCC2)cc1Nc1cccc(-c2ncn(C)n2)c1OC
- Kd [17]: 0.028 nM
- IC50 [18]: 54 nM

SMILES: CNc1cc(Nc2ccccc2OC)nc2c(C(=O)N[C@@H]3CCN(C)C3=O)cnn12
- IC50 [10]: 8 nM

SMILES: NC(=O)c1nnc(-c2c(F)cccc2Cl)cc1Nc1ccc(N2CCOCC2)cc1
- IC50 [20]: 37 nM
- IC50 [21]: 9 nM
- IC50 [22]: 11 nM
- IC50 [23]: 0.2 nM
- IC50 (JAK2/TYK2 [24]): 0.4 nM

SMILES: CNc1cc(Nc2cccnc2OC)nc2c(C(=O)NCC3(CO)CC3)cnn12
- Kd [17]: < 0.2 nM
- Kd [11]: 5000 nM
- inhibition [25]: < 50%
- inhibition [26]: < 50%
- IC50 (JAK2/TYK2 [27]): < 500 nM
- IC50 (JAK2/TYK2 [28]): < 500 nM

Reference: ChEMBL document CHEMBL5380830, “Development and Therapeutic Implications of Tyrosine Kinase 2 Inhibitors” (J Med Chem, 2023)
